19 compounds from patent publication US20060173015A1, “Cyclohexyldiamines as selective alpha 1a/1d adrenoreceptor antagonists for the treatment of benign prostatic hypertrophy and lower urinary tract symptoms” (priority 2004, published 2006) can be followed below.

Each structure is given as a SMILES string.

In one assay the target is T1, α1a-AR (Homo sapiens, UniProt P35348).
T1 construct: expressed in transfected cells; host or cells: COS-7
T1 sequence (P35348 1-466): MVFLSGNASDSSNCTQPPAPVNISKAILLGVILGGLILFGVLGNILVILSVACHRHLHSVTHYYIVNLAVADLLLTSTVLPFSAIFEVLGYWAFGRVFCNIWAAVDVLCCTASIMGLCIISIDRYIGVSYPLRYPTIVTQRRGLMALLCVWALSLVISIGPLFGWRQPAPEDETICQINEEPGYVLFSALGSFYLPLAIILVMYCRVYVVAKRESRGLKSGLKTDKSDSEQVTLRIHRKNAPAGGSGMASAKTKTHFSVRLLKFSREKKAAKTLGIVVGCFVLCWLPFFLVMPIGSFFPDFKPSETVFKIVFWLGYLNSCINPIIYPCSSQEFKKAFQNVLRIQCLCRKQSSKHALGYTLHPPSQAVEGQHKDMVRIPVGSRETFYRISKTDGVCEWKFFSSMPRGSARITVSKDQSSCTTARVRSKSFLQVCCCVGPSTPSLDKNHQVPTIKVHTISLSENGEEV
Briefly: α1-Adrenergic receptor radio-ligand (125I-HEAT) binding assay, α1a subtype. To be noted: COS-7 cell membranes, 125I-HEAT. The procedure, abridged: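 Membranes from COS-7 cells transfected with the α1a-AR were incubated with 50 pM final ¹²⁵I-HEAT and test compound (1 pM–10 μM final, half-log steps) in Tris/EDTA/NaCl buffer pH 7.4 for 1 hr at rt. Bound radioactivity was counted after GF/C filtration, in triplicate.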

Another assay deals with T2, α1d-AR (Homo sapiens, UniProt P25100).
T2 construct: expressed in transfected cells; host or cells: COS-7
T2 sequence (P25100 1-572): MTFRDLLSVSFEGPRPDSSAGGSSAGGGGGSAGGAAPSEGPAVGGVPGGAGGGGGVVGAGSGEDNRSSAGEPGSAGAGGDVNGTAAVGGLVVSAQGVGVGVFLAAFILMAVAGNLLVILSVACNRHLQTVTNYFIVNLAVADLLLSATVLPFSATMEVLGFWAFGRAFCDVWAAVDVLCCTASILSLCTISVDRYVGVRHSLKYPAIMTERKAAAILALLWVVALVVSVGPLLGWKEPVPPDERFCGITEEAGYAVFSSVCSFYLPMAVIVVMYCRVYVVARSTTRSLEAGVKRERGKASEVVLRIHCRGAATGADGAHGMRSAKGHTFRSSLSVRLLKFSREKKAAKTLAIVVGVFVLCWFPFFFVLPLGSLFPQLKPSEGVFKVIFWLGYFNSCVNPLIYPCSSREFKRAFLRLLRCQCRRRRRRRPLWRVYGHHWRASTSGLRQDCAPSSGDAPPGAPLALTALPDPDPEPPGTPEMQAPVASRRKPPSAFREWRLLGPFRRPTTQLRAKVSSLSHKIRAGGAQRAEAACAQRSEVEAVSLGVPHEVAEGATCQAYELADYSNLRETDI
The assay can be described thus: α1-Adrenergic receptor radio-ligand (125I-HEAT) binding assay, α1d subtype. To be noted: COS-7 cell membranes, 125I-HEAT; read-out: Receptor Binding, Ki α1d-AR.

In the next assay the target is T3, α1b-AR (Homo sapiens, UniProt P35368).
T3 sequence (P35368 1-520): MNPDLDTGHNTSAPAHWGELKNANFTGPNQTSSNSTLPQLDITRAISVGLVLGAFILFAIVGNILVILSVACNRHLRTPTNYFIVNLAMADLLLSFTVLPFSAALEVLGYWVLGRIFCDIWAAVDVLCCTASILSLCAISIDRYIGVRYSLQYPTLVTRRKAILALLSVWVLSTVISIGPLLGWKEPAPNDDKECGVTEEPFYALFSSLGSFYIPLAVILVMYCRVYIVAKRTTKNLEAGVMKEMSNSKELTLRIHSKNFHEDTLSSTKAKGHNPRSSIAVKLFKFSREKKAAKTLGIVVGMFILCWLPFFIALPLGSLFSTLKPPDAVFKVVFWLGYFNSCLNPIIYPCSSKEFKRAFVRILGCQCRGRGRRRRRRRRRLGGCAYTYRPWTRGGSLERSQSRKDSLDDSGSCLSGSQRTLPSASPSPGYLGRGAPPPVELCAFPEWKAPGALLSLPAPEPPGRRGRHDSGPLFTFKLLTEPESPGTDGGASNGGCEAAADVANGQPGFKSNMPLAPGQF
Briefly: α1-Adrenergic receptor radio-ligand (125I-HEAT) binding assay, α1b subtype. Particulars: Receptor Binding, Ki α1b-AR, COS-7 cell membranes, 125I-HEAT.

What is called Ki is the dissociation constant of the complex between target and ligand, obtained from inhibition or displacement. `CC(C)Oc1ccccc1N1CCN([C@H]2CC[C@@H](NS(=O)(=O)Cc3ccccc3)CC2)CC1` [Cpd 57, N-cis-{4-[4-(2-Isopropoxy-phenyl)-piperazin-1-yl]-cyclohexyl}-C-phenyl-methanesulfonamide]: the Ki at α1a-AR turned out to be 1.2 nM; at α1d-AR it was 3.6 nM; at α1b-AR, 82 nM.
For `CC(C)Oc1ccccc1N1CCN([C@H]2CC[C@H](NS(=O)(=O)c3cnc(Cl)c(Br)c3)CC2)CC1` [Cpd 66, 5-Bromo-6-chloro-pyridine-3-sulfonic acid N-trans-{4-[4-(2-isopropoxy-phenyl)-piperazin-1-yl]-cyclohexyl}-amide], the values for the Ki at α1a-AR, on α1d-AR and on α1b-AR were 3.5 nM, 14.6 nM and 279 nM, respectively.
Taken in the same sequence, the figures for `COc1ccc(S(=O)(=O)N[C@H]2CC[C@@H](N3CCN(c4ccc(F)cc4OCC(F)(F)F)CC3)CC2)cc1OC` [Cpd 75, N-cis-(4-{4-[4-Fluoro-2-(2,2,2-trifluoro-ethoxy)-phenyl]-piperazin-1-yl}-cyclohexyl)-3,4-dimethoxy-benzenesulfonamide] were 13.9 nM, 5.2 nM and 176 nM.
Taken in the same sequence, the figures for `CC(C)Oc1ccccc1N1CCN([C@H]2CC[C@@H](NS(=O)(=O)c3cnc(Cl)c(Br)c3)CC2)CC1` [Cpd 61, 5-Bromo-6-chloro-pyridine-3-sulfonic acid N-cis-{4-[4-(2-isopropoxy-phenyl)-piperazin-1-yl]-cyclohexyl}-amide] were 14.4 nM, 0.14 nM and 125 nM.
Taken in the same sequence, the figures for `CCN([C@H]1CC[C@@H](N2CCN(c3ccccc3OC(C)C)CC2)CC1)S(=O)(=O)c1ccc(OC)c(OC)c1` [Cpd 67, N-Ethyl-N-cis-{4-[4-(2-isopropoxy-phenyl)-piperazin-1-yl]-cyclohexyl}-3,4-dimethoxy-benzenesulfonamide] were 15 nM, 22 nM and 326 nM.
Take `COc1ccc([N+](=O)[O-])cc1S(=O)(=O)N[C@H]1CC[C@@H](N2CCN(c3ccccc3OC(C)C)CC2)CC1` [Cpd 19, N-cis-{4-[4-(2-Isopropoxy-phenyl)-piperazin-1-yl]-cyclohexyl}-2-methoxy-5-nitro-benzenesulfonamide]: the Ki at α1a-AR was 4.3 nM; on α1d-AR it was 2.2 nM; on α1b-AR, 85.3 nM.
The corresponding values for `CC(C)Oc1ccccc1N1CCN([C@H]2CC[C@@H](NS(=O)(=O)c3ccc(OC(F)(F)F)cc3)CC2)CC1` [Cpd 17, N-cis-{4-[4-(2-Isopropoxy-phenyl)-piperazin-1-yl]-cyclohexyl}-4-trifluoromethoxy-benzenesulfonamide] are 17.4 nM, 2.1 nM and 174 nM.
Taken in the same sequence, the figures for `CC(C)Oc1ccccc1N1CCN([C@H]2CC[C@H](NS(=O)(=O)c3cccnc3)CC2)CC1` [Cpd 64, Pyridine-3-sulfonic acid N-trans-{4-[4-(2-isopropoxy-phenyl)-piperazin-1-yl]-cyclohexyl}-amide] were 5.8 nM, 5.5 nM and 192 nM.
Taken in the same sequence, the figures for `COc1ccc(C(F)(F)F)cc1S(=O)(=O)N[C@H]1CC[C@@H](N2CCN(c3ccccc3OC(C)C)CC2)CC1` [Cpd 20, N-cis-{4-[4-(2-Isopropoxy-phenyl)-piperazin-1-yl]-cyclohexyl}-2-methoxy-5-trifluoromethyl-benzenesulfonamide] were 35.9 nM, 14 nM and 473 nM.
In the case of `CC(C)Oc1ccccc1N1CCN([C@H]2CC[C@H](NS(=O)(=O)c3ccccc3[N+](=O)[O-])CC2)CC1` [Cpd 54], the Ki at α1a-AR was found to be 1 nM; on α1d-AR, 27 nM; on α1b-AR, 236 nM.
Taken in the same sequence, the figures for `COc1ccncc1S(=O)(=O)N[C@H]1CC[C@@H](N2CCN(c3ccccc3OC(C)C)CC2)CC1` [Cpd 60, 4-Methoxy-pyridine-3-sulfonic acid N-cis-{4-[4-(2-isopropoxy-phenyl)-piperazin-1-yl]-cyclohexyl}-amide] were 4.9 nM, 9.4 nM and 169 nM.
On to `Cc1ccc(S(=O)(=O)N[C@H]2CC[C@H](N3CCN(c4ccccc4OC(C)C)CC3)CC2)cc1Cl` [Cpd 46, 3-Chloro-N-trans-{4-[4-(2-isopropoxy-phenyl)-piperazin-1-yl]-cyclohexyl}-4-methyl-benzenesulfonamide], for which the values for the Ki on α1a-AR, at α1d-AR and on α1b-AR were 1.5 nM, 16 nM and 193 nM, respectively.
The corresponding values for `CC(C)Oc1ccccc1N1CCN([C@H]2CC[C@H](NS(=O)(=O)c3ccc(F)c(Cl)c3)CC2)CC1` [Cpd 42, 3-Chloro-4-fluoro-N-trans-{4-[4-(2-isopropoxy-phenyl)-piperazin-1-yl]-cyclohexyl}-benzenesulfonamide] are 6.6 nM, 72 nM and 2300 nM.
Taken in the same sequence, the figures for `CC(C)Oc1ccccc1N1CCN([C@H]2CC[C@H](NS(=O)(=O)c3ccc(F)cc3)CC2)CC1` [Cpd 38, 4-Fluoro-N-trans-{4-[4-(2-isopropoxy-phenyl)-piperazin-1-yl]-cyclohexyl}-benzenesulfonamide] were 1.3 nM, 36 nM and 301 nM.
Taken in the same sequence, the figures for `COc1ccncc1S(=O)(=O)N[C@H]1CC[C@H](N2CCN(c3ccccc3OC(C)C)CC2)CC1` [Cpd 65, 4-Methoxy-pyridine-3-sulfonic acid N-trans-{4-[4-(2-isopropoxy-phenyl)-piperazin-1-yl]-cyclohexyl}-amide] were 13.4 nM, 76 nM and 268 nM.
As for `COc1ccc(Cl)cc1S(=O)(=O)N[C@H]1CC[C@H](N2CCN(c3ccc(F)cc3OC(C)C)CC2)CC1` [Cpd 78, 5-Chloro-N-trans-{4-[4-(4-fluoro-2-isopropoxy-phenyl)-piperazin-1-yl]-cyclohexyl}-2-methoxy-benzenesulfonamide], the Ki on α1a-AR was determined as 340 nM; on α1d-AR, 47 nM; on α1b-AR it was 44 nM.
Taken in the same sequence, the figures for `COc1ccc(Cl)cc1S(=O)(=O)N[C@H]1CC[C@@H](N2CCN(c3ccc(F)cc3OC(C)C)CC2)CC1` [Cpd 73, 5-Chloro-N-cis-{4-[4-(4-fluoro-2-isopropoxy-phenyl)-piperazin-1-yl]-cyclohexyl}-2-methoxy-benzenesulfonamide] were 598 nM, 134 nM and 81 nM.
In the case of `CC(C)Oc1ccccc1N1CCN([C@H]2CC[C@@H](NS(=O)(=O)c3ccccc3C(F)(F)F)CC2)CC1` [Cpd 13, N-cis-{4-[4-(2-Isopropoxy-phenyl)-piperazin-1-yl]-cyclohexyl}-2-trifluoromethyl-benzenesulfonamide], the values for the Ki on α1a-AR, at α1d-AR and on α1b-AR were 23 nM, 3.4 nM and 190 nM, respectively.
With `COc1ccc(C(F)(F)F)cc1S(=O)(=O)N[C@H]1CC[C@H](N2CCN(c3ccccc3OC(C)C)CC2)CC1` [Cpd 48, N-trans-{4-[4-(2-Isopropoxy-phenyl)-piperazin-1-yl]-cyclohexyl}-2-methoxy-5-trifluoromethyl-benzenesulfonamide], the Ki on α1a-AR was 24.5 nM; on α1d-AR it was 1.5 nM; at α1b-AR, 258 nM.
